Data from PubChem BioAssay AID2060909 (Molecular Pharmacology Branch, DTP, NCI, 2025).

Test system: 362531-283-R-J2-PDC complex spheroid viability
Experiment: Anticancer human tumor 362531-283-R-J2-PDC patient-derived colon adenocarcinoma cell line growth inhibition [RAS]
Details: for IC50: curve of first compound; for viability, T/C: stronger effect = lower value
Text: RAS pathway inhibitors in Combinations in Complex Spheroids
A high-throughput screen of multi-cell type tumor spheroids was designed to identify active combinations of RAS pathway inhibitors and targeted small molecules. Complex spheroids include a stromal component modeled by human endothelial cells (HUVEC) and fibroblasts modeled by human mesenchymal stem cells (MSCs). The concentration ranges selected for each drug and investigational agent were based upon clinically achievable concentrations if the clinical Cmax of the agent was known.
Compounds. The drugs and investigational agents: abemaciclib (NSC768073), cobimetinib (NSC768068), divarasib (GDC6063, NSC841802), docetaxel (NSC628503), GDC-1971 (RLY-1971, NSC841576), gemcitabine (NSC613327), inavolisib (NSC800729), ipatasertib (NSC767898), KB-0742 (NSC834161), MRTX-1133 (NSC836407), osimertinib (NSC779217), RMC-4630 (NSC839698), RMC-6236 (NSC851965), RMC-6291 (NSC852671), Ro-3306 (NSC812927), sapanisertib (NSC764658), SN-38 (NSC673596), staurosporine (NSC755774), SY5609 (NSC837396), and tovorafenib (DAY101, NSC766906), were obtained from the National Cancer Institute (NCI) Developmental Therapeutics Program Chemical Repository. The FDA-approved anticancer drug set is available from the NCI Developmental Therapeutics Program. […] The stock solutions were prepared in dimethyl sulfoxide (DMSO, Sigma-Aldrich, St. Louis, MO, cat. D2650) at 800-fold the tested concentration and stored at -70 degrees C prior to their use. All drugs and investigational agents were tested over a range starting from a high concentration at or near the clinical Cmax and decreasing in half-log increments. If the clinical Cmax for an agent had not been determined, the highest concentration tested was 10 microM.
Cell Culture. All cells were maintained in an incubator at 37 degrees C and 5% CO2 with 95% humidity. The PDC lines were cultured according to standard operating procedures established by the NCI PDMR. All PDCs were thawed and cultured in Matrigel-coated flasks prepared with a working solution of 1X Ham's F-12 nutrient mix, without supplementation (Invitrogen, Waltham, MA, cat. 11765054), 100 U/mL penicillin-streptomycin (Invitrogen, cat. 15140122), and 2.5% Matrigel (Corning Inc., Corning, NY, cat. 354248) for the first three passages. The 362531-283-R-J2-PDC and 782815-120-R-J1-PDC lines were cultured in 6C/Colon 1B media, which includes advanced DMEM/F-12 (Thermo Fisher Scientific, cat. 12634028), 10 mM HEPES (Thermo Fisher Scientific, cat. 15630080), 1X GlutaMAX supplement (Thermo Fisher Scientific, cat. 35050061), 0.1 mg/mL primocin (InvivoGen, San Diego, CA, cat. ant-pm-2), 10% defined fetal bovine serum, heat inactivated (HyClone Laboratories Inc., Logan, UT, cat. SH30070.03HI), 50% L-WRN conditioned media (ATCC, cat. CRL-3276), 1.25 mM N-Acetyl-L-cysteine (Sigma-Aldrich, cat. A9165), 10 mM nicotinamide (Sigma-Aldrich, cat. N0636), 1X B-27 supplement (Thermo Fisher Scientific, cat. 17504044), 1X N-2 supplement (Thermo Fisher Scientific, cat. 17502048), 50 ng/mL human EGF (Thermo Fisher Scientific, cat. PHG0311), and 10 microM Y-27632 dihydrochloride (Tocris Bioscience, cat. 1254). The K12877-001-R-J1-PDC line was cultured in 6I media, which includes all 6C/Colon 1B media plus 10 ng/mL human FGF-10 (PeproTech, cat. 100-26), 1 ng/mL human FGF-2 (PeproTech, cat. 100-18B), 1 µM prostaglandin E2 (Tocris Bioscience, cat. 2296), […] hydrocortisone (Sigma-Aldrich, cat. H4001), and […] bovine insulin (Sigma-Aldrich, cat. I6634). The K86415-001-R-J1-PDC line was cultured in 6D media, which includes all 6C/Colon 1B media components minus the L-WRN conditioned media. The 485176-168-R4-J1-PDC was cultured in PANC media, which includes all 6C/Colon 1B media plus 100 ng/mL human FGF-10 (PeproTech, cat. 100-26), 500 nM SB-431542 (Selleckchem, cat. S1067), and 10 nM gastrin (Tocris Bioscience, cat. 3006). […]
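Further: spheroids exposed to the agents for 7 days before readout.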
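Wherever viability, T/C is given: luminescence viability as percent of DMSO vehicle control wells.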

Compound: O=C(c1ccc(F)c(F)c1Nc1ccc(I)cc1F)N1CC(O)([C@@H]2CCCCN2)C1 + CCn1c(-c2cc(N3CCN(C)CC3)cnc2C(C)OC)c2c3cc(ccc31)-c1csc(n1)CC(NC(=O)C1CC1C)C(=O)N1CCCC(N1)C(=O)OCC(C)(C)C2
- IC50 (second compound 0.000949 µM): 523 nM
- IC50 (second compound 0.003 µM): 514 nM
- IC50 (second compound 0.00949 µM): 454 nM
- IC50 (second compound 0.03 µM): 447 nM
- IC50 (second compound 0.0949 µM): 72 nM
- IC50 (second compound 0.3 µM): < 3.16 nM
- viability, T/C (second compound 0.000949 µM, first compound 0.00316 µM): 93%
- viability, T/C (second compound 0.000949 µM, first compound 0.01 µM): 105%
- viability, T/C (second compound 0.000949 µM, first compound 0.0316 µM): 85.6%
- viability, T/C (second compound 0.000949 µM, first compound 0.1 µM): 80.9%
- viability, T/C (second compound 0.000949 µM, first compound 0.316 µM): 74.8%
- viability, T/C (second compound 0.000949 µM, first compound 1 µM): 23.1%
- viability, T/C (second compound 0.003 µM, first compound 0.00316 µM): 87.8%
- viability, T/C (second compound 0.003 µM, first compound 0.01 µM): 101%
- viability, T/C (second compound 0.003 µM, first compound 0.0316 µM): 92%
- viability, T/C (second compound 0.003 µM, first compound 0.1 µM): 76.4%
- viability, T/C (second compound 0.003 µM, first compound 0.316 µM): 76%
- viability, T/C (second compound 0.003 µM, first compound 1 µM): 20.3%
- viability, T/C (second compound 0.00949 µM, first compound 0.00316 µM): 98.4%
- viability, T/C (second compound 0.00949 µM, first compound 0.01 µM): 94.7%
- viability, T/C (second compound 0.00949 µM, first compound 0.0316 µM): 81.4%
- viability, T/C (second compound 0.00949 µM, first compound 0.1 µM): 82.6%
- viability, T/C (second compound 0.00949 µM, first compound 0.316 µM): 73.6%
- viability, T/C (second compound 0.00949 µM, first compound 1 µM): 4.71%
- viability, T/C (second compound 0.03 µM, first compound 0.00316 µM): 87.4%
- viability, T/C (second compound 0.03 µM, first compound 0.01 µM): 75.7%
- viability, T/C (second compound 0.03 µM, first compound 0.0316 µM): 82%
- viability, T/C (second compound 0.03 µM, first compound 0.1 µM): 75.4%
- viability, T/C (second compound 0.03 µM, first compound 0.316 µM): 69.1%
- viability, T/C (second compound 0.03 µM, first compound 1 µM): 5.79%
- viability, T/C (second compound 0.0949 µM, first compound 0.00316 µM): 72.8%
- viability, T/C (second compound 0.0949 µM, first compound 0.01 µM): 96.2%
- viability, T/C (second compound 0.0949 µM, first compound 0.0316 µM): 58.1%
- viability, T/C (second compound 0.0949 µM, first compound 0.1 µM): 49.3%
- viability, T/C (second compound 0.0949 µM, first compound 0.316 µM): 3.89%
- viability, T/C (second compound 0.0949 µM, first compound 1 µM): 3.06%
- viability, T/C (second compound 0.3 µM, first compound 0.00316 µM): 28.9%
- viability, T/C (second compound 0.3 µM, first compound 0.01 µM): 28.4%
- viability, T/C (second compound 0.3 µM, first compound 0.0316 µM): 15.1%
- viability, T/C (second compound 0.3 µM, first compound 0.1 µM): 3.3%
- viability, T/C (second compound 0.3 µM, first compound 0.316 µM): 3.48%
- viability, T/C (second compound 0.3 µM, first compound 1 µM): 3.15%

Compound: CCc1c2c(nc3ccc(O)cc13)-c1cc3c(c(=O)n1C2)COC(=O)[C@]3(O)CC + C#Cc1c(F)ccc2cc(O)cc(-c3ncc4c(N5CC6CCC(C5)N6)nc(OCC56CCCN5CC(F)C6)nc4c3F)c12
- IC50 (second compound 0.0316 µM): 42.2 nM
- IC50 (second compound 0.1 µM): 22.4 nM
- IC50 (second compound 0.316 µM): 16.6 nM
- IC50 (second compound 1 µM): 11.4 nM
- IC50 (second compound 3.16 µM): 2.45 nM
- IC50 (second compound 10 µM): < 0.949 nM
- viability, T/C (second compound 0.0316 µM, first compound 0.000949 µM): 95.2%
- viability, T/C (second compound 0.0316 µM, first compound 0.003 µM): 91.8%
- viability, T/C (second compound 0.0316 µM, first compound 0.00949 µM): 71.5%
- viability, T/C (second compound 0.0316 µM, first compound 0.03 µM): 60.6%
- viability, T/C (second compound 0.0316 µM, first compound 0.0949 µM): 32.3%
- viability, T/C (second compound 0.0316 µM, first compound 0.3 µM): 18%
- viability, T/C (second compound 0.1 µM, first compound 0.000949 µM): 92.7%
- viability, T/C (second compound 0.1 µM, first compound 0.003 µM): 85.8%
- viability, T/C (second compound 0.1 µM, first compound 0.00949 µM): 64.3%
- viability, T/C (second compound 0.1 µM, first compound 0.03 µM): 47.2%
- viability, T/C (second compound 0.1 µM, first compound 0.0949 µM): 25.3%
- viability, T/C (second compound 0.1 µM, first compound 0.3 µM): 21.2%
- viability, T/C (second compound 0.316 µM, first compound 0.000949 µM): 84.9%
- viability, T/C (second compound 0.316 µM, first compound 0.003 µM): 84.3%
- viability, T/C (second compound 0.316 µM, first compound 0.00949 µM): 57.7%
- viability, T/C (second compound 0.316 µM, first compound 0.03 µM): 40.5%
- viability, T/C (second compound 0.316 µM, first compound 0.0949 µM): 18.2%
- viability, T/C (second compound 0.316 µM, first compound 0.3 µM): 13.9%
- viability, T/C (second compound 1 µM, first compound 0.000949 µM): 72.7%
- viability, T/C (second compound 1 µM, first compound 0.003 µM): 76%
- viability, T/C (second compound 1 µM, first compound 0.00949 µM): 51.2%
- viability, T/C (second compound 1 µM, first compound 0.03 µM): 30.2%
- viability, T/C (second compound 1 µM, first compound 0.0949 µM): 18.5%
- viability, T/C (second compound 1 µM, first compound 0.3 µM): 12.1%
- viability, T/C (second compound 3.16 µM, first compound 0.000949 µM): 58.2%
- viability, T/C (second compound 3.16 µM, first compound 0.003 µM): 50.5%
- viability, T/C (second compound 3.16 µM, first compound 0.00949 µM): 29%
- viability, T/C (second compound 3.16 µM, first compound 0.03 µM): 19.8%
- viability, T/C (second compound 3.16 µM, first compound 0.0949 µM): 16.1%
- viability, T/C (second compound 3.16 µM, first compound 0.3 µM): 7.69%
- viability, T/C (second compound 10 µM, first compound 0.000949 µM): 39.3%
- viability, T/C (second compound 10 µM, first compound 0.003 µM): 26.9%
- viability, T/C (second compound 10 µM, first compound 0.00949 µM): 18.8%
- viability, T/C (second compound 10 µM, first compound 0.03 µM): 16.2%
- viability, T/C (second compound 10 µM, first compound 0.0949 µM): 12.3%
- viability, T/C (second compound 10 µM, first compound 0.3 µM): 8.32%
